According to paper PMC9601927 (Foods, 2022):

Legend:
Type in all cases: cell-based
[1] = system: Caco-2 cells; assay: MTT cell viability assay
Description: Caco-2 cells were provided by the Cell Bank of the Chinese Academy of Sciences (Shanghai, China). MTT analysis was used to investigate cell viability. In short, Caco-2 cells were incubated with ANC (0.23, 0.69, 2.06, 6.17, 18.52, 55.56, 166.67, or 500 × 10^−3 mg/mL), FA-g-CS (0.09, 0.27, 0.82, 2.47, 7.41, 22.22, 66.67, or 200 × 10^−3 mg/mL), or their respective combinations. Each group was incubated with three multiple wells for 48 h. Subsequently, the chemical medium was replaced with fresh MTT solution for 3 h at 37 °C and the […] was dissolved with DMSO. Then, the optical density (OD) was measured at 570 nm using a PerkinElmer EnVision (PerkinElmer, Waltham, MA, USA). The following Formula (1) was used to calculate cell viability:(1) Cell viability(%)=ODsample−ODblank/ODcontrol−ODblank where ODcontrol, ODsample, and ODblank represent the measurements of the control, sample, and blank, respectively.

[2] = system: sGLT1; assay: Immunofluorescence staining of sGLT1 in Caco-2 cells; conditions: ANC 2.3 × 10^−4 mg/mL or FA-g-CS 9 × 10^−5 mg/mL, 48 h
Description: Immunofluorescence staining was carried out to further validate the effect of FA-g-CS/ANC on the expression of sGLT1 and GLUT2. In short, Caco-2 cells were transfected with NC siRNA (negative control), GLUT2-siRNA-2, and sGLT1-siRNA-3; then, they were seeded onto a 4-well slide and chamber (Watson, Kobe, Japan). Subsequently, cells were incubated with 0.09 µg/mL FA-g-CS, 0.23 µg/mL ANC, or their combination at 37 °C for 48 h. Then, they were fixed with 4% paraformaldehyde for 10 min and soaked with 0.5% Triton X-100 in PBS for 15 min. In this study, goat serum was used to avoid nonspecific binding at room temperature. After 30 min of treatments, the cells were incubated with the primary antibody ([…], Santa Cruz Biotechnology, with 1:100 dilutions) at 4 °C overnight, followed by incubation with the secondary antibody (goat anti-mouse IgG1-HRP, Santa Cruz Biotechnology, Shanghai, China, with 1:100 dilutions) for 1 h at 20–37 °C. Nuclear staining was performed with DAPI, and the images were captured with a fluorescence microscope (BX53, Olympus, Tokyo, Japan).

[3] = system: sGLT1; assay: Western blot of sGLT1 expression in Caco-2 cells after siRNA transfection and incubation
Description: Firstly, the cells were washed twice with 1 mL of cold PBS and then lysed in 100 μL of ice-cold RIPA lysis buffer. Western blot analysis was performed following the previous method with minor modifications. Briefly, total protein samples were resolved by SDS-PAGE (8%, 10%, or 12%) and transferred to PVDF membranes blocked with 5% nonfat milk powder in TBST; these were then incubated with 8 μg of primary antibody at a dilution of 1:1000/500 (v/v) overnight at 4 °C. Detection was performed with 10 mL of ECL and oxidizing reagent and equal amounts of HRP-conjugated anti-mouse at a 1:5000 (v/v) dilution rate. To further illustrate the effect of FA-g-CS on the transmembrane transport of ANC, the Caco-2 cells were transfected with siRNA targeted to sGLT1 and GLUT2 (the optimal interference fragments screened by previous tests) and then incubated with FA-g-CS, ANC, or their combinations. Finally, the expressions of sGLT1 and GLUT2 were detected using a Western blot assay.

OC[C@H]1O[C@@H](Oc2cc3c(O)cc(O)cc3[o+]c2-c2ccc(O)c(O)c2)[C@H](O)[C@@H](O)[C@@H]1O [ANC, Cyanidin-3-glucoside]
influence on Caco-2 cells (Figure 1A–C, MTT) ([1]; 2.3 × 10^−4 or 6.9 × 10^−4 mg/mL ANC): insignificant influence | effect on cell viability (MTT) ([1]; ANC concentration lower than 6.17 × 10^−3 mg/mL, 48 h): no significant effect | protein level of sGLT1 (immunofluorescence) compared with the control cells [2]: increased | expression of sGLT1 compared with the blank ([3]; cells treated with nonrelated and scrambled siRNA): significantly elevated | expression level of sGLT1 compared with the blank control ([3]; cells treated with siRNA transfection): significantly increased | increased sGLT1 expression ([3]; siRNA-transfected Caco-2 cells incubated with compounds (abstract)): < 60%
